Patent US4058608A, “Method of treating fungus-infected plants with phenylazocyanoacetic ester derivatives” (Chinoin Gyogyszer es Vegyeszeti Termekek Gyara RT, priority 1974, dated 1977)

Key:
toxicity tests on mice = format: in vivo; settings: mouse, in vivo, ip, intraperitoneal administration, calculated from LD0 and LD100
Procedure: (§1) 5, 10 or 20% of active agent were suspended in 0.1% agar gel, and the obtained homogeneous suspensions were injected intraperitoneally into mice, or were administered into the stomach of the animals via a stomach tube. The animals were kept under observation for one week after a single treatment, and the toxicity data were evaluated on the basis of the percentage deaths observed in this period.

mice = test: toxicity tests on mice; format: in vivo; settings: single treatment, one week observation
Procedure: as §1

[1] = oral administration (stomach tube)

SMILES | LD50 at 168 h (toxicity tests on mice) | LD0 (mice; intraperitoneal administration) | LD100 (mice; intraperitoneal administration) | LD0 (mice; [1]) | LD100 (mice; [1])
CCCCOC(=O)C(C#N)N=Nc1ccc(Cl)cc1 (centres unmarked) [n-C4 H9 -- H H Cl] | 800 mg/kg | 500 mg/kg | 1000 mg/kg | 6000 mg/kg | 6000 mg/kg
CCCCOC(=O)C(C#N)N=Nc1cccc([N+](=O)[O-])c1 (centres unmarked) [n-C4 H9 -- H NO2 -- H] | 600 mg/kg | 400 mg/kg | 800 mg/kg | 6000 mg/kg | 6000 mg/kg
CCOC(=O)C(C#N)N=Nc1ccc(Cl)cc1 (centres unmarked) [C2 H5 -- H H Cl] | 400 mg/kg | 200 mg/kg | 600 mg/kg | 6000 mg/kg | 6000 mg/kg
CCCOC(=O)C(C#N)N=Nc1cccc(Cl)c1 (centres unmarked) [n-C3 H7 -- H Cl H] | 500 mg/kg | 300 mg/kg | 800 mg/kg | 6000 mg/kg | 6000 mg/kg
CCCCOC(=O)C(C#N)N=Nc1cccc(Cl)c1 (centres unmarked) [n-C4 H9 -- H Cl H] | 800 mg/kg | 500 mg/kg | 1000 mg/kg | 6000 mg/kg | 6000 mg/kg
CC(C)OC(=O)C(C#N)N=Nc1cccc(Cl)c1 (centres unmarked) [i-C3 H7 -- H Cl H] | 500 mg/kg | 300 mg/kg | 800 mg/kg | 6000 mg/kg | 6000 mg/kg
CCCOC(=O)C(C#N)N=Nc1ccc(Cl)cc1 (centres unmarked) [n-C3 H7 -- H H Cl] | 600 mg/kg | 400 mg/kg | 1000 mg/kg | 6000 mg/kg | 6000 mg/kg
CCCCOC(=O)C(C#N)N=Nc1ccc([N+](=O)[O-])cc1 (centres unmarked) [n-C4 H9 -- H H NO2 --] | 600 mg/kg | 400 mg/kg | 800 mg/kg | 6000 mg/kg | 6000 mg/kg
CC(C)OC(=O)C(C#N)N=Nc1ccc(Cl)cc1 (centres unmarked) [i-C3 H7 -- H H Cl] | 600 mg/kg | 400 mg/kg | 1000 mg/kg | 6000 mg/kg | 6000 mg/kg
CCOC(=O)C(C#N)N=Nc1cccc(Cl)c1 (centres unmarked) [C2 H5 -- H Cl H] | 400 mg/kg | 200 mg/kg | 600 mg/kg | 6000 mg/kg | 6000 mg/kg
